Like-named read-outs stand apart in the source and are kept apart here.

Test [1] has as its system Haemonchus contortus L3. The test can be described thus: Haemonchus contortus, Larvae Stage 3 (HcL3) In Vitro Assay. The conditions noted are these: Haemonchus contortus.
For test [2], the system named is Dirofilaria immitis microfilariae. The test can be described thus: Dirofilaria immitis, Microfilariae (DiMF) In Vitro Assay. The settings on record: Dirofilaria immitis.
For test [3], the target named is T1, bovine vesicular acetylcholine transporter (VAChT) (Bos taurus, UniProt E1BK36).
T1 sequence (E1BK36 1-524): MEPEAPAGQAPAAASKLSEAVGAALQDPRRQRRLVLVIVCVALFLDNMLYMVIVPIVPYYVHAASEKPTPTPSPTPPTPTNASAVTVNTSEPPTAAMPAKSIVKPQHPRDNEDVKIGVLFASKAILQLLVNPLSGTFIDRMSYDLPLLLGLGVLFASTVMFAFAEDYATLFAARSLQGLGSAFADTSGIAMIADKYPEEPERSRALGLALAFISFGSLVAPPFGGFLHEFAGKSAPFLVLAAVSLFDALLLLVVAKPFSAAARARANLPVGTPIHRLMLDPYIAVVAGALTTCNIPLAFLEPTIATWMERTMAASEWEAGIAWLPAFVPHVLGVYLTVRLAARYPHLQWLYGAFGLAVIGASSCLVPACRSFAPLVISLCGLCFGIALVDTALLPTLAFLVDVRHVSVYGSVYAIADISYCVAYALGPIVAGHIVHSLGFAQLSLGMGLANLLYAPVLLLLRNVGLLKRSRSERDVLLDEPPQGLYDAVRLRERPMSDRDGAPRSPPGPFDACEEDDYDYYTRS
Nature of the test: Radioligand Binding Assay. The conditions noted are these: Bovine binding Ki, CHO-K1 membranes with recombinant bovine VAChT, [3H]Compound X6 0.3 nM.

Where [4] appears, read: 96 h, read-out: HcL3 MEC, Minimal Effective Concentration whereby worm motility is inhibited by approximately 70%, 37° C., tested 0.001-100 μM.
Where [5] appears, read: 72 h, read-out: Di MF, MEC, decrease in microfilariae motility by visual assessment, curve starting at 100 μM.
Setting [6] is: 96 hours, 37° C., read-out: HcL3 MEC.

Take `O=C(NCc1ccnc(Cl)c1)N1CC2(CCN(C/C=C/c3ccc(Cl)cc3)CC2)c2c(Br)cccc21` [Example 156, (E)-4-bromo-1′-(3-(4-chlorophenyl)allyl)-N-((2-chloropyridin-4-yl)methyl)spiro[indoline-3,4′-piperidine]-1-carboxamide]: the minimal effective concentration in test [1] (setting [4]) is 7.8 µM; in test [2] (setting [5]), 5.7 µM. Also, the Ki in test [3] was determined as 0.0715 µM.
Regarding `N#Cc1ccc(/C=C/CN2CCC3(CC2)CN(C(=O)NCc2ccnc(Cl)c2)c2ccc(F)c(Cl)c23)cc1` [Example 157, (E)-4-chloro-N-((2-chloropyridin-4-yl)methyl)-1′-(3-(4-cyanophenyl)allyl)-5-fluorospiro[indoline-3,4′-piperidine]-1-carboxamide], the minimal effective concentration was 8.1 µM in test [1] (setting [4]) and 11 µM in test [2] (setting [5]). Further, in test [3], the Ki stood at 0.0227 µM.
Turning to `O=C(NCc1ccnc(Cl)c1)N1CC2(CCN(C/C=C/c3ccc(F)cc3)CC2)c2c1ccc(F)c2Cl` [Example 158, (E)-4-chloro-N-((2-chloropyridin-4-yl)methyl)-5-fluoro-1′-(3-(4-fluorophenyl)allyl)spiro[indoline-3,4′-piperidine]-1-carboxamide], the minimal effective concentration in test [1] (setting [6]) was 9.9 µM; in test [2] (72 hours, read-out: Di MF), 4.3 µM. Further, the Ki in test [3] turned out to be 0.0548 µM.
Turning to `O=C(NCc1ccnc(Cl)c1)N1CC2(CCN(C/C=C/c3ccc(Cl)cc3)CC2)c2c1ccc(OC(F)(F)F)c2Cl` [Example 159, (E)-4-chloro-1′-(3-(4-chlorophenyl)allyl)-N-((2-chloropyridin-4-yl)methyl)-5-(trifluoromethoxy)spiro[indoline-3,4′-piperidine]-1-carboxamide], the minimal effective concentration is 10 µM in test [1] (setting [6]) and 24 µM in test [2] (72 hours, read-out: Di MF). In addition, the Ki in test [3] turned out to be 0.565 µM.
For the compound `O=C(NCc1ccnc(Cl)c1)N1CC2(CCN(C/C=C/c3ccc(Cl)cc3)CC2)c2cc(C(F)(F)F)ccc21` [Example 160, (E)-1′-(3-(4-chlorophenyl)allyl)-N-((2-chloropyridin-4-yl)methyl)-5-(trifluoromethyl)spiro[indoline-3,4′-piperidine]-1-carboxamide], the minimal effective concentration in test [1] (setting [6]) is 10 µM; in test [2] (72 hours, read-out: Di MF), 10 µM. In test [3], the inhibition constant (Ki) worked out at 0.226 µM.
On to `O=C(NCc1ccnc(Cl)c1)N1CC2(CCN(C/C=C/c3ccc(F)cc3)CC2)c2c(Cl)cc(Cl)cc21` [Example 161, (E)-4,6-dichloro-N-((2-chloropyridin-4-yl)methyl)-1′-(3-(4-fluorophenyl)allyl)spiro[indoline-3,4′-piperidine]-1-carboxamide], for which the minimal effective concentration in test [1] (setting [4]) and in test [2] (setting [5]) was 10 µM throughout. Further, the inhibitory constant (Ki) in test [3] came to 0.259 µM.
On to `CS(=O)(=O)c1ccc2c(c1)N(C(=O)NCc1ccnc(Cl)c1)CC21CCN(C/C=C/c2ccc(Cl)cc2)CC1` [Example 162, (E)-1′-(3-(4-chlorophenyl)allyl)-N-((2-chloropyridin-4-yl)methyl)-6-(methylsulfonyl)spiro[indoline-3,4′-piperidine]-1-carboxamide], for which the minimal effective concentration in test [1] (setting [4]) and in test [2] (setting [5]) was 10 µM throughout. Moreover, the inhibition constant Ki in test [3] amounted to 0.0234 µM.
With `O=C(NCc1ccnc(Cl)c1)N1CC2(CCN(C/C=C/c3ccc(F)cc3)CC2)c2cc(OC(F)(F)F)ccc21` [Example 163, (E)-N-((2-chloropyridin-4-yl)methyl)-1′-(3-(4-fluorophenyl)allyl)-5-(trifluoromethoxy)spiro[indoline-3,4′-piperidine]-1-carboxamide], the minimal effective concentration in test [1] (setting [6]) was determined as 10.1 µM; in test [2] (72 hours, read-out: Di MF), 2.5 µM. In test [3], the Ki is 0.554 µM.
With `O=C(NCc1ccnc(Cl)c1)N1CC2(CCN(C/C=C/c3ccc(C(F)(F)F)cc3)CC2)c2c1ccc(F)c2Cl` [Example 164, (E)-4-chloro-N-((2-chloropyridin-4-yl)methyl)-5-fluoro-1′-(3-(4-(trifluoromethyl)phenyl)allyl)spiro[indoline-3,4′-piperidine]-1-carboxamide], the minimal effective concentration in test [1] (setting [4]) is 12.4 µM; in test [2] (setting [5]), 5.3 µM. Further, the Ki in test [3] came out at 0.311 µM.
For `N#Cc1cccc2c1C1(CCN(C/C=C/c3ccc(Cl)cc3)CC1)CN2C(=O)NCc1ccnc(Cl)c1` [Example 165, (E)-1′-(3-(4-chlorophenyl)allyl)-N-((2-chloropyridin-4-yl)methyl)-4-cyanospiro[indoline-3,4′-piperidine]-1-carboxamide], the minimal effective concentration in test [1] (setting [4]) is 16.7 µM; in test [2] (setting [5]) it was 8.3 µM. The inhibition constant (Ki) in test [3] came out at 0.0384 µM.
Consider `N#Cc1c(F)ccc2c1C1(CCN(C/C=C/c3ccc(Cl)cc3)CC1)CN2C(=O)NCc1ccnc(Cl)c1` [Example 166, (E)-1′-(3-(4-chlorophenyl)allyl)-N-((2-chloropyridin-4-yl)methyl)-4-cyano-5-fluorospiro[indoline-3,4′-piperidine]-1-carboxamide], for which the minimal effective concentration came out at 23.5 µM in test [1] (setting [4]) and 1.5 µM in test [2] (setting [5]). In test [3], the Ki worked out at 0.0435 µM.
For `COc1ccc2c(c1)C1(CCN(C/C=C/c3ccc(Cl)c(Cl)c3)CC1)CN2C(=O)NCc1ccnc(Cl)c1` [Example 167, (E)-N-((2-chloropyridin-4-yl)methyl)-1′-(3-(3,4-dichlorophenyl)allyl)-5-methoxyspiro[indoline-3,4′-piperidine]-1-carboxamide], the minimal effective concentration in test [1] (setting [6]) is 6.9 µM; in test [2] (72 hours, read-out: Di MF), 33 µM. Further, the Ki in test [3] is 0.184 µM.
On to `COc1ccc(/C=C/CN2CCC3(CC2)CN(C(=O)NCc2ccnc(Cl)c2)c2ccc(C(F)(F)F)cc23)cc1` [Example 168, (E)-N-((2-chloropyridin-4-yl)methyl)-1′-(3-(4-methoxyphenyl)allyl)-5-(trifluoromethyl)spiro[indoline-3,4′-piperidine]-1-carboxamide], for which the minimal effective concentration in test [1] (setting [6]) stood at 33 µM; in test [2] (72 hours, read-out: Di MF), 3.3 µM. Besides, in test [3], the inhibitory constant (Ki) stood at 0.266 µM.
For `O=C(NCc1ccnc(Cl)c1)N1CC2(CCN(C/C=C/c3ccc(Cl)cc3)CC2)c2cc(S(F)(F)(F)(F)F)ccc21` [Example 169, (E)-1′-(3-(4-chlorophenyl)allyl)-N-((2-chloropyridin-4-yl)methyl)-5-(pentafluorosulfide)spiro[indoline-3,4′-piperidine]-1-carboxamide], the minimal effective concentration was 47.8 µM in test [1] (setting [4]) and 3.3 µM in test [2] (setting [5]). Moreover, in test [3], the Ki was 0.467 µM.
Take `O=C(NCc1ccnc(Cl)c1)N1CC2(CCN(C/C=C/c3ccc(C(F)(F)F)cc3)CC2)c2cc(C(F)(F)F)ccc21` [Example 170, (E)-N-((2-chloropyridin-4-yl)methyl)-5-(trifluoromethyl)-1′-(3-(4-(trifluoromethyl)phenyl)allyl)spiro[indoline-3,4′-piperidine]-1-carboxamide]: the results for the minimal effective concentration in test [1] (setting [4]) and in test [2] (setting [5]) were 57.4 µM and 5.7 µM, respectively. Moreover, in test [3], the Ki came to 0.716 µM.
Consider `O=C(NCc1ccnc(Cl)c1)N1CC2(CCN(C/C=C/c3ccc(Cl)c(Cl)c3)CC2)c2cc(Cl)cc(Cl)c21` [Example 171, (E)-5,7-dichloro-N-((2-chloropyridin-4-yl)methyl)-1′-(3-(3,4-dichlorophenyl)allyl)spiro[indoline-3,4′-piperidine]-1-carboxamide], for which the minimal effective concentration in test [1] (setting [6]) came out at 69.1 µM; in test [2] (72 hours, read-out: Di MF), 7.6 µM. Moreover, the Ki in test [3] is 0.0209 µM.
For the compound `O=C(NCc1ccnc(Cl)c1)N1CC2(CCN(C/C=C/c3ccc(OC(F)(F)F)cc3)CC2)c2cc(C(F)(F)F)ccc21` [Example 172, (E)-N-((2-chloropyridin-4-yl)methyl)-1′-(3-(4-(trifluoromethoxy)phenyl)allyl)-5-(trifluoromethyl)spiro[indoline-3,4′-piperidine]-1-carboxamide], the minimal effective concentration in test [1] (setting [4]) was 100 µM; in test [2] (setting [5]), 5.7 µM. Moreover, the Ki in test [3] worked out at 0.921 µM.
With `O=C(NCc1ccnc(Cl)c1)N1CC2(CCN(C/C=C/c3ccc(Cl)cc3)CC2)c2c1ccc(F)c2C(F)(F)F` [Example 173, (E)-1′-(3-(4-chlorophenyl)allyl)-N-((2-chloropyridin-4-yl)methyl)-5-fluoro-4-(trifluoromethyl)spiro[indoline-3,4′-piperidine]-1-carboxamide], the minimal effective concentration in test [1] (setting [4]) worked out at 100 µM; in test [2] (setting [5]) it was 5.7 µM. Besides, the Ki in test [3] worked out at 0.465 µM.
The corresponding values for `O=C(NCc1ccnc(Cl)c1)N1CC2(CCN(C/C=C/c3ccc(F)cc3)CC2)c2c(OC(F)(F)F)cccc21` [Example 174, (E)-N-((2-chloropyridin-4-yl)methyl)-1′-(3-(4-fluorophenyl)allyl)-4-(trifluoromethoxy)spiro[indoline-3,4′-piperidine]-1-carboxamide] are 100 µM, 4.4 µM and 1.5 µM.

Usually Ki stands for the dissociation constant of the complex between target and ligand, obtained from inhibition or displacement.

These data come from patent US20160296499A1, “Spiroindoline Antiparasitic Derivatives” (ZOETIS SERVICES LLC, priority 2013, published 2016).
